Data on two compounds can be found in patent US5948814A, “Genistein for the treatment of cystic fibrosis” (priority 1998, dated 1999).

For series [1], the system named is histidine kinase. The conditions noted are these: cited from earlier work.
In series [2] the target is T1, ΔF508-CFTR (Homo sapiens, UniProt P13569, DEL508-508). The series can be described thus: CFTR gating in excised inside-out patches, NIH/3T3-ΔF508 cells. Here is the method:
FIGS. 9A and B are recordings of the effects of genistein on CFTR gating in excised inside-out patches from NIH/3T3-CFTR or NIH/3T3-ΔF508 cells. CFTR channels were activated by 10 μM forskolin +20 nM calyculin A before excision into an inside-out configuration. Presence of calyculin A helps to slow channel dephosphorylation. (A): continuous 14.5 minute recording of a patch containing wt-CFTR. Expanded traces are 22 seconds in length. ATP (500 μM) with or without 20 μM genistein was present as indicated. (B): 2 traces of 44 seconds in length of an excised inside-out patch with CFTR-ΔF508.
Electrophysiology: CFTR channel currents were recorded at room temperature (~22° C.) with a patch-clamp amplifier (EPC-9, Heka Electronic), filtered at 100 Hz with a built-in three-pole Bessel filter, and stored on videotapes. Data were subsequently refiltered at 25 Hz with an eight-pole Bessel filter (Frequency Device, Havervill, Mass.) and captured onto a hard disk at a sampling rate of 50 Hz. […] Patch-clamp electrodes were made from Corning 7052 glass capillaries (Warner Instrument, Hammed, Conn.). The pipette resistance was usually 3-5 M.OMEGA., and the seal resistance was >20 G.OMEGA.. The pipette solution contained (in mM) 140 N-methyl-D-glucamine chloride (NMDG-C1), 2 MgCl2, 5Ca Cl2, and 10 HEPES (pH 7.4 with NMDG). The superfusion solution contained (in mM) 150 […], 2 MgCl2, 1 EGTA, 5 glucose, and 5 HEPES (pH 7.4 with NaOH). In excised inside-out patch experiments, the bath solution contained (in mM) 130 MNDG-Cl, 10 EGTA, 10 HEPES, 20 tetraethylammonium chloride, 8 Tris, and 2 MgCl2 (pH 7.4 with NMDG). Pipette potential was held at 50 mV relative to the bath. Downward deflections represent channel opening.
Channels were first activated in cell-attached patches with forskolin plus calyculin A, a membrane-permeant phosphatase inhibitor [Suganuma et al., 1991]. Patches were then excised into an inside-out configuration.

The subject of series [3] is protein phosphatase. Particulars: cited from earlier work.
The subject of series [4] is tyrosine kinases. Particulars: cited from earlier work.
Series [5] addresses T1, ΔF508-CFTR. The series can be described thus: Forskolin-dependent I- efflux, NIH/3T3-ΔF508 cells. Here is the method: FIG. 1 is a graph representing the dose-responses relationship for forskolin-dependent I^- efflux. Peak rates of I^- efflux in the presence (closed symbols) or absence (open symbols) of 50 μM genistein were obtained with NIH/3T3-cystic fibrosis transmembrane conductance regulator (NIH/3T3-CFTR) (circles) and NTH/3T3-Δphenylalanine 508 (ΔF508) cells (triangles). NIH/3T3-CFTR cells are cultured at 37° C. NIH/3T3-Δ508 cells are cultured at 27° C. for 3 days prior to assay. Data are mean values±SE (n>5). Lines were fit by nonlinear least squares.
FIG. 2 is a bar graph showing the effects of stimulation of ΔF508-CFTR by forskolin and genistein. Peak rates of I^- efflux were measured with NIH/3T3-ΔF508cells that were cultured at 37° C. (open bars) or at 27° C. for 3 days prior to assay (filled bars). I^- efflux was assayed without added agonist as a control and with 1 μM forskolin (fsk), 50 μM genistein (gen), or 1 μM forskolin plus 50 μM genistein (fsk+gen). Error bars are SE for n>7.
Cell culture: NIH/3T3-CFTR, NIH/3T3-ΔF508, and NIH/3T3 mock cells (generous gifts from Dr. Richard Mulligan of Children's Hospital and Medical Center, Harvard Medical School) were grown as described [Bradbury et al., 1992] at 37° C. and 5% CO2 in Dulbecco's modified Eagle's medium-H21 supplemented with 10% new-born calf serum, 4 mM glutamine, 25 mM glucose, 100 μg/ml penicillin, 100 μg/ml streptomycin, and 50 μg/ml gentamicin. Cells were maintained in T75 flasks, passaged at 90-95% confluency, and split one to four. For measurements of I^- efflux and in vivo phosphorylation, cells were seeded onto 35-mm dishes at […]. For patch-clamp experiments, cells were grown on coverglass chips in 35-mm culture dishes. Media were replaced 24 hours after plating and thereafter every 48 hours. In all cases, media were changed on the day before I^- efflux studies, NIH/3T3-ΔF508 cells were transferred to 27° C. three days before use, and 1 day prior to study, media were supplemented with 5 mM butyrate. For patch-clamp studies, where a constant level of functional ΔF508-CFTR was not essential, NIH/3T3-ΔF508 cells were cultured at 27° C. for 2-6 days before use. Calu-3 cells were grown and maintained as described by Hunter [1995].
I^- efflux: I^- efflux was measured as described previously [Reenstra et al., 1996]. Briefly, cells were incubated for 30 minutes with 37° C. I^- efflux buffer [(in mM) 141 NaCl, 4 KCl, 1 KH2 PO4, 0.9 MgCl2, 1.7 CaCl2. 10 N-2hydroxyethylpiperazine-N'-2-ethanesulfonic acid (HEPES), 25 glucose pH 7.4] containing 5 μCi/ml carrier-free ^125 I^- (sodium salt). Extracellular ^125 I^- was removed by washing four times with efflux buffer, and the rate of loss of intracellular ^125 I^- was determined by replacing the bathing solution with 37° C. efflux buffer every 60 seconds for 12 minutes. Time-dependent rates of ^125 I^- efflux are calculated from R=ln(^125 I^-t1 /^125 I^-t2)/(t1-t2), where ^125 I^-t is the intracellular ^125 I^- at time t and t1 and t2 are successive time points. Dose-response curves were obtained from peak rates of 125I^- efflux by nonlinear least squares fitting to R=[Ro +Rmx ·([fsk]/K1/2)]/[1+([fsk]/K1/2)], where Ro and Rmx are the rates of ^125 I efflux at zero and infinite concentration of forskolin (fsk), and K1/2 is the concentration of agonist that gives a half-maximal change.
To investigate effects of genistein on CFTR activity, the rates of I^- efflux were measured from stably transfected NIH/3T3 cells expressing wt- and ΔF508-CFTR (NIH/33-CFTR and NIH/3T3-ΔF508 cells, respectively). […] To increase ΔF508-CFTR channel activity, NIH/3T3-ΔF508 cells were cultured at 27° C. for 3 days [Denning et al., 1992].

Structures are written as SMILES. Like-named read-outs stand apart in the source and are kept apart here. A value given as a limit tells only on which side of the number the result lay.

T1 sequence (P13569 with tags, fused parts or gaps DEL508-508): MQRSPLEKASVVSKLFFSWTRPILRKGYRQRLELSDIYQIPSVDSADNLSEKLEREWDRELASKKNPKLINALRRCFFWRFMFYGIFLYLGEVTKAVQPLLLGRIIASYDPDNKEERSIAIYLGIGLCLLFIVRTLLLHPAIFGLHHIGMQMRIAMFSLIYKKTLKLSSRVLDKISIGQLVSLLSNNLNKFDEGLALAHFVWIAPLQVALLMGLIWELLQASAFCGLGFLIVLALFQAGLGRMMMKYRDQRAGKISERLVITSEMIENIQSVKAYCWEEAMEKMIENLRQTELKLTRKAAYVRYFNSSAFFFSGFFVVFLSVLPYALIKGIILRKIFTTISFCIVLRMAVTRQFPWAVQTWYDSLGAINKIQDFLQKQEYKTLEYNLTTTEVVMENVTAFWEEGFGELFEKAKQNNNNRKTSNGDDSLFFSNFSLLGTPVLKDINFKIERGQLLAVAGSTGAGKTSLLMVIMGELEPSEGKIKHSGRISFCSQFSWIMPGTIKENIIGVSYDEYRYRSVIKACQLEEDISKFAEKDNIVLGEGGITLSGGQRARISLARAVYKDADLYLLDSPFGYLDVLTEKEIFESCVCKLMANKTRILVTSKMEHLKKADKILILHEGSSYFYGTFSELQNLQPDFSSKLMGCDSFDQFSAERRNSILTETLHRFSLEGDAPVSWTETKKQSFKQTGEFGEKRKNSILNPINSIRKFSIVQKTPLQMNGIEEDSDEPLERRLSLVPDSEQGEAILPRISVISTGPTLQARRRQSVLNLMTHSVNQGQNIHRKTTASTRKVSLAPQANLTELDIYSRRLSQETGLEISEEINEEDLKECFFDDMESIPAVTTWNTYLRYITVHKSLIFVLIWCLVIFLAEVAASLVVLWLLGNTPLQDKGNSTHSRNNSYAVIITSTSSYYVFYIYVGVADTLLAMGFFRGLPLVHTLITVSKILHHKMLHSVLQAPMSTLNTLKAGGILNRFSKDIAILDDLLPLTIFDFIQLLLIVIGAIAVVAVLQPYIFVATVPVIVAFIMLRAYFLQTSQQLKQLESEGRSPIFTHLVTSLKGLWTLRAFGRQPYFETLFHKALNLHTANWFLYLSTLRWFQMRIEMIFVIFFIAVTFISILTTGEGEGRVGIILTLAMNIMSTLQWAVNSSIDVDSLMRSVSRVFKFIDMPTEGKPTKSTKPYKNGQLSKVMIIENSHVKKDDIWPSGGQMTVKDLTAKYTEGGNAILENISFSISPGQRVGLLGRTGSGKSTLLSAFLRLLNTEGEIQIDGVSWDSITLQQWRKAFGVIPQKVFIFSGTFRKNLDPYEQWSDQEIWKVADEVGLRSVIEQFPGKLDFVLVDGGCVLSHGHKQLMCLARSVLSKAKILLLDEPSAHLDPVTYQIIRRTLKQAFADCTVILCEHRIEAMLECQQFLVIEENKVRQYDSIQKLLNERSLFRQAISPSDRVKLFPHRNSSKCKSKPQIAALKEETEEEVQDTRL

`O=c1c(-c2ccc(O)cc2)coc2cc(O)cc(O)c12` [Genistein, 4',5,7-trihydroxyisoflavone]: in series [1], the “inhibition of histidine kinase” value is “inhibits”. Further, in series [2] (ATP with genistein, stated for both wt- and ΔF508-CFTR), the channel open time is reported as 2,033±173 milliseconds. Moreover, the “increase of ATP-dependent channel current by genistein” value in series [2] (genistein, n=7) was found to be 2.3±0.5 fold. The “inhibition of protein phosphatase” value in series [3] was “no protein phosphatase has been shown to be inhibited by genistein”. Further, in series [4], the “inhibition of tyrosine kinases” value is recorded as “inhibits”. Besides, in series [5] (50 μM genistein, cells cultured at 27° C. for 3 days), the “increase of the maximal forskolin-dependent I- efflux response by genistein” value turned out to be 3.7±0.4 fold.
On to `C=C[C@@]1(C)CC(=O)[C@]2(O)[C@@]3(C)[C@@H](O)CCC(C)(C)[C@@H]3[C@H](O)[C@H](OC(C)=O)[C@@]2(C)O1` [forskolin], for which, in series [5], the EC50 turned out to be 670 ± 260 nM and the “stimulation of mutant ΔF508-CFTR” value was “had little affect on mutant ΔF508-CFTR”. For the same compound, the maximal fold induction in series [5] (mouse, read-out: maximal forskolin-dependent increase in I- efflux) was 1.65 ± 0.08. Also, the EC50 in series [5] (read-out: K1/2 of forskolin for I- efflux in presence of genistein, with 50 μM genistein, cells cultured at 27° C. for 3 days) came out at 16 ± 5 nM. For the same compound, the activation at 10 µM in series [5] (read-out: increase of I- efflux) was under 15%.
